Source: ChEMBL document CHEMBL1201862, “PubChem BioAssay data set” (2004)
Calls of active or inactive are those of the source.

Tests used:
[1] = target: 1-phosphatidylinositol 4,5-bisphosphate phosphodiesterase beta-3 (Homo sapiens, UniProt Q01970); test: Fluorescence-based biochemical high throughput dose response assay to identify inhibitors of phospholipase C isozymes (PLC-B3).
[2] = target: Induced myeloid leukemia cell differentiation protein Mcl-1 (Homo sapiens, UniProt Q07820); format: functional
[3] = target: T1, Small ubiquitin-related modifier 1 (Homo sapiens, UniProt P63165); test: inhibitors of SUMO1 peptide binding, dose response, biochemical, fluorescence polarization, uHTS hits (AID 624382); format: functional; conditions: read-out: IC50_Mean
[4] = target: T2, Bifunctional protein GlmU (Mycobacterium tuberculosis, UniProt P9WMN3); test: Inhibitors of Mycobacterial Glucosamine-1-phosphate acetyl transferase (GlmU). Secondary screen.; parameters: species or system Mycobacterium tuberculosis H37Rv
T2 sequence (P9WMN3 whole entry): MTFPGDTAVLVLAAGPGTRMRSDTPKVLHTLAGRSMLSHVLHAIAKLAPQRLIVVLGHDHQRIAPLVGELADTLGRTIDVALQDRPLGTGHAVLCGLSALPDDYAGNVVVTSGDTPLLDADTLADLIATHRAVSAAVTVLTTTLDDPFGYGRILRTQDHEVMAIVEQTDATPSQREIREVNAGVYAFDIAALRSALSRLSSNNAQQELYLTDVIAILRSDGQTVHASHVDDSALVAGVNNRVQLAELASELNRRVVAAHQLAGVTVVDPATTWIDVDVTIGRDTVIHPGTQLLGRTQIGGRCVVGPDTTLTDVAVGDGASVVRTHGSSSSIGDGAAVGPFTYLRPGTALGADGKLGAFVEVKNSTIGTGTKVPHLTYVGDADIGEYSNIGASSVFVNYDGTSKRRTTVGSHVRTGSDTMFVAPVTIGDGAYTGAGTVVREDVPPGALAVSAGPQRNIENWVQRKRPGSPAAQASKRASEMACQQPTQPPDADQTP

[5] = target: 1-phosphatidylinositol 4,5-bisphosphate phosphodiesterase gamma-1 (Homo sapiens, UniProt P19174); test: Counterscreen for inhibitors of phospholipase C isozymes (PLC-B3): Fluorescence-based biochemical high throughput dose response assay to identify inhibitors of phospholipase C isozymes (PLC-gamma1).
[6] = target: Apoptotic protease-activating factor 1 (Homo sapiens, UniProt O14727); test: activation of Apaf-1 mediated apoptosis – fluorescent, uHTS hits, dose response (AID 588554); format: functional
[7] = target: T3, Dual specificity protein phosphatase 3 (Homo sapiens, UniProt P51452); test: VHR1 phosphatase inhibitors, primary screen, biochemical, absorbance, uHTS (AID 1654)
[8] = target: T3, Dual specificity protein phosphatase 3; test: VHR1 phosphatase inhibitors, biochemical (AID 1878)
[9] = target: T4, Dual specificity protein phosphatase 6 (Rattus norvegicus, UniProt Q64346); test: MKP-3 phosphatase inhibitors, primary screen, biochemical, rat enzyme, in vitro (AID 425)
T4 sequence (Q64346 whole entry): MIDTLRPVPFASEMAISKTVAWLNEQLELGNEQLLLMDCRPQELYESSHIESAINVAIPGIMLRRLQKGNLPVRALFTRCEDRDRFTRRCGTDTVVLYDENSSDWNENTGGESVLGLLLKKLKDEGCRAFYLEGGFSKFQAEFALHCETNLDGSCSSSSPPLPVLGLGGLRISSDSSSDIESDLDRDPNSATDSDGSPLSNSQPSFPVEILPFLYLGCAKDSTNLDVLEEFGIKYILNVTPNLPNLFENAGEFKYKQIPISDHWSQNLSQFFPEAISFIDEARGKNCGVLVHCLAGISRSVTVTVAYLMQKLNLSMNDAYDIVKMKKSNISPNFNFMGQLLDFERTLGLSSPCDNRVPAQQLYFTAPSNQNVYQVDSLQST

[10] = target: T1, Small ubiquitin-related modifier 1; test: inhibitors of SUMO1 partner interactions, dose response, biochemical, FRET (AID 624383); format: functional; conditions: read-out: IC50_Mean
[11] = cytotoxicity in HepG2 cells, dose response, cytotoxicity control, cell-based, cherry-picked samples (AID 1053183); format: functional
[12] = P. falciparum Dd2 growth inhibitors, dose response, SYBR Green, cherry-picked samples (AID 1159567); format: functional, cell-based
[13] = cytotoxicity in A549 cells, dose response, cytotoxicity control, cell-based, cherry-picked samples (AID 1053184); format: functional
[14] = HepG2 cell cytotoxicity, dose response, cytotoxicity control, cherry-picked samples (AID 1159577); format: functional, cell-based
[15] = cytotoxicity in HEK293 cells, dose response, cytotoxicity control, cell-based, cherry-picked samples (AID 1053185); format: functional
Caspase-7 = Caspase-7 (Homo sapiens, UniProt P55210); test: human caspase-7 inhibitors, dose response, selectivity assay for caspase-6 inhibitor project, biochemical, DEVD-R110 fluorescence, cherry-pick (AID 743295)
Caspase-6 = target: T5, Caspase-6 (Homo sapiens, UniProt P55212); test: human caspase-6 inhibitors, dose response, biochemical, VEID-R110 fluorescence, cherry-pick (AID 720632)
T5 sequence (P55212 whole entry): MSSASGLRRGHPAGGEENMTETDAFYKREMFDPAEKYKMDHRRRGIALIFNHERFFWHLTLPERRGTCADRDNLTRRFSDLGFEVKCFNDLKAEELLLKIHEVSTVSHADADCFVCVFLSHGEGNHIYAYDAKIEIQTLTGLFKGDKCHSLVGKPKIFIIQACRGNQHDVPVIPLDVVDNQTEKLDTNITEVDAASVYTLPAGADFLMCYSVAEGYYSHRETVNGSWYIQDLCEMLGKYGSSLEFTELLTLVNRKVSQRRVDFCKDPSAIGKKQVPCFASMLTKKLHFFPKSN

Albumin = Albumin (Bos taurus, UniProt P02769); test: Counterscreen for inhibitors of T-cell receptor (TCR)-CD3 interaction: Fluorescence-based biochemical high throughput dose response assay to identify inhibitors of T-cell receptor (TCR)-CD3 interaction using a TAMRA-labeled BSA probe.; format: functional
[16] = target: Delta-type opioid receptor (Homo sapiens, UniProt P41143); test: Late-stage results from the probe development effort to identify antagonists of OPRK1: fluorescence-based cell-based dose response OPRD1 counterscreen.; format: functional
Mu-type opioid receptor = Mu-type opioid receptor (Homo sapiens, UniProt P35372); test: Late-stage results from the probe development effort to identify antagonists of OPRK1: luminescence-based cell-based dose response OPRM1 counterscreen.; format: functional
Chain of Mu-type opioid receptor (P35372 whole entry): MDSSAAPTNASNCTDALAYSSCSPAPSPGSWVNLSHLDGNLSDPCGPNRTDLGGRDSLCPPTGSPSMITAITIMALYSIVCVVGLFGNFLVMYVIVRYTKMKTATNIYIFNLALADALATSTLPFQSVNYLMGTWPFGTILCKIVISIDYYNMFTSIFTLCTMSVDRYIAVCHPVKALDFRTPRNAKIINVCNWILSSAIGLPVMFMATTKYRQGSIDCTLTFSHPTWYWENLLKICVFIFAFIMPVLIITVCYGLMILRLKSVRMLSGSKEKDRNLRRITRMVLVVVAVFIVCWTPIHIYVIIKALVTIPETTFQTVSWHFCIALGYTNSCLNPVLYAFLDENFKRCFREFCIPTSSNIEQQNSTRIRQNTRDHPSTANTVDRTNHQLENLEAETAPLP

T3 sequence (P51452 whole entry): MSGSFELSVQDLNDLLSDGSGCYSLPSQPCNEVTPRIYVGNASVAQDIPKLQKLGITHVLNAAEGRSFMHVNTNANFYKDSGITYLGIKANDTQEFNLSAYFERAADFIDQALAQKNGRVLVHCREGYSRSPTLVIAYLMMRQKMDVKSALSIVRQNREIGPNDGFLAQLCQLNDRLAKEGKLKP
T1 sequence (P63165 whole entry): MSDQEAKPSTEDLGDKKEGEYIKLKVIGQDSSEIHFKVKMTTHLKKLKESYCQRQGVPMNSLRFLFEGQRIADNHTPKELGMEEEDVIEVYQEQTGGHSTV
Chain of Apoptotic protease-activating factor 1 (O14727 whole entry): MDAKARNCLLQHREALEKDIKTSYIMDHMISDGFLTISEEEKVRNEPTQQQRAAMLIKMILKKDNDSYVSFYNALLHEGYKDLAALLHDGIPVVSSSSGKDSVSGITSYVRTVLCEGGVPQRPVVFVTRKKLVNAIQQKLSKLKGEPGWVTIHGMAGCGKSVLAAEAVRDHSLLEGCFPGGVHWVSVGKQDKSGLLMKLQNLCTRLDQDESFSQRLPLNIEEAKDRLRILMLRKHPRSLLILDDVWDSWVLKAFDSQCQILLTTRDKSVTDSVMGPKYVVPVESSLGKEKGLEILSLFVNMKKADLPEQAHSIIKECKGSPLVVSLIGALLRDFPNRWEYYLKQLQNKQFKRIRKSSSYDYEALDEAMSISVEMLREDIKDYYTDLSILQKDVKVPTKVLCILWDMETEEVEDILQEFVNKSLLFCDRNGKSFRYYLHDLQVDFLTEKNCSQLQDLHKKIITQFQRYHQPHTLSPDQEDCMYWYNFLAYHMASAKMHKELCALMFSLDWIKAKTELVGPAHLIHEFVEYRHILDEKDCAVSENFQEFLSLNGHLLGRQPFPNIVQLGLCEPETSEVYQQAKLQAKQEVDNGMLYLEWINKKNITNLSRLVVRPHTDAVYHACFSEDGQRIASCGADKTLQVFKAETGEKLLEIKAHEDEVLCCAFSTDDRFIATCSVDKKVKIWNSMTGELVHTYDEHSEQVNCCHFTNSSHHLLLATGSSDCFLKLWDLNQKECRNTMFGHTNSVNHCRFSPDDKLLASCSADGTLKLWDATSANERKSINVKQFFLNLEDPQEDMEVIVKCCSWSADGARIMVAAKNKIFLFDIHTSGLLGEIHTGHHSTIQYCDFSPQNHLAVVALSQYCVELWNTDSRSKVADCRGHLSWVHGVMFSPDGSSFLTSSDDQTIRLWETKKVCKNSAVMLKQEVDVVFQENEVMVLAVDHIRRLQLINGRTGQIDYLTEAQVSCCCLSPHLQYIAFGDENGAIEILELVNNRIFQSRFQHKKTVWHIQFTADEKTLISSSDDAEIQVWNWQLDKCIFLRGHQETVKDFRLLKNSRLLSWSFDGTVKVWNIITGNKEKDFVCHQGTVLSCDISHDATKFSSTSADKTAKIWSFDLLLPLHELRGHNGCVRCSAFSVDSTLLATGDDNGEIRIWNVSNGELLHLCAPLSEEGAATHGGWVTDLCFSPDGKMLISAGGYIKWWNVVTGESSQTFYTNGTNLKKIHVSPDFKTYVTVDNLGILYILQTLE
Chain of Caspase-7 (P55210 24-198 limits assumed): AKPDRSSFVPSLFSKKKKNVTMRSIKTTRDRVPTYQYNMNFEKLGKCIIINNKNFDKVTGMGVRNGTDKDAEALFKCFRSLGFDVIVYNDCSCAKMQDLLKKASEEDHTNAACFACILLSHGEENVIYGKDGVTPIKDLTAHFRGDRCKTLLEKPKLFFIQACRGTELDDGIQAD
Chain of Caspase-7 (P55210 207-303 limits assumed): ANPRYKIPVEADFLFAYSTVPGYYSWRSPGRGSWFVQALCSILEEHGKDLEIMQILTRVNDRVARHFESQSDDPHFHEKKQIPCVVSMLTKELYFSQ
Chain of Induced myeloid leukemia cell differentiation protein Mcl-1 (Q07820 whole entry): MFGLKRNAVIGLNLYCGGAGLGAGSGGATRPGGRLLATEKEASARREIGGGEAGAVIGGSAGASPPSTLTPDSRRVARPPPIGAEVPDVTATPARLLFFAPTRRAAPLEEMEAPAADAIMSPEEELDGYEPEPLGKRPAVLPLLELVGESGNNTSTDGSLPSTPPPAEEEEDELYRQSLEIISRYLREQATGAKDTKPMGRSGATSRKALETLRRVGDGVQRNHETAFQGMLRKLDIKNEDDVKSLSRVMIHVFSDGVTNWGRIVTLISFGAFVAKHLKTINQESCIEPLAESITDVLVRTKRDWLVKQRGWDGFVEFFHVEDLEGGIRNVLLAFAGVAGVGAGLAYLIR
Chain of Albumin (P02769 whole entry): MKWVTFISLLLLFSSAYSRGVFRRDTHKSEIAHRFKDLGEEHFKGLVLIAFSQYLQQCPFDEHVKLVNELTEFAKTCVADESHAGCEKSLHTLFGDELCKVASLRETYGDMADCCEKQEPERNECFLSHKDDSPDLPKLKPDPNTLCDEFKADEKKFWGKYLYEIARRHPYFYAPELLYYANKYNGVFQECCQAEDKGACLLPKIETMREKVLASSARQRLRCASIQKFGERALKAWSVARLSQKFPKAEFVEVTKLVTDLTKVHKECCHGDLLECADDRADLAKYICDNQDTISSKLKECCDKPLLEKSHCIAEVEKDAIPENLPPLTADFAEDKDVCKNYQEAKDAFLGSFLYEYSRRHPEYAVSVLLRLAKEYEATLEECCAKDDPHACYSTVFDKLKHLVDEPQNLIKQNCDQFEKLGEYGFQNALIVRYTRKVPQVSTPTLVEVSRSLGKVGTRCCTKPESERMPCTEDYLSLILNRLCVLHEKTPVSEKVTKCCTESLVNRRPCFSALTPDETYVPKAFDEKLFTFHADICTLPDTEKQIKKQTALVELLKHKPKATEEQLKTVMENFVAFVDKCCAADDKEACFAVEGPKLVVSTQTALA
Chain of 1-phosphatidylinositol 4,5-bisphosphate phosphodiesterase beta-3 (Q01970 whole entry): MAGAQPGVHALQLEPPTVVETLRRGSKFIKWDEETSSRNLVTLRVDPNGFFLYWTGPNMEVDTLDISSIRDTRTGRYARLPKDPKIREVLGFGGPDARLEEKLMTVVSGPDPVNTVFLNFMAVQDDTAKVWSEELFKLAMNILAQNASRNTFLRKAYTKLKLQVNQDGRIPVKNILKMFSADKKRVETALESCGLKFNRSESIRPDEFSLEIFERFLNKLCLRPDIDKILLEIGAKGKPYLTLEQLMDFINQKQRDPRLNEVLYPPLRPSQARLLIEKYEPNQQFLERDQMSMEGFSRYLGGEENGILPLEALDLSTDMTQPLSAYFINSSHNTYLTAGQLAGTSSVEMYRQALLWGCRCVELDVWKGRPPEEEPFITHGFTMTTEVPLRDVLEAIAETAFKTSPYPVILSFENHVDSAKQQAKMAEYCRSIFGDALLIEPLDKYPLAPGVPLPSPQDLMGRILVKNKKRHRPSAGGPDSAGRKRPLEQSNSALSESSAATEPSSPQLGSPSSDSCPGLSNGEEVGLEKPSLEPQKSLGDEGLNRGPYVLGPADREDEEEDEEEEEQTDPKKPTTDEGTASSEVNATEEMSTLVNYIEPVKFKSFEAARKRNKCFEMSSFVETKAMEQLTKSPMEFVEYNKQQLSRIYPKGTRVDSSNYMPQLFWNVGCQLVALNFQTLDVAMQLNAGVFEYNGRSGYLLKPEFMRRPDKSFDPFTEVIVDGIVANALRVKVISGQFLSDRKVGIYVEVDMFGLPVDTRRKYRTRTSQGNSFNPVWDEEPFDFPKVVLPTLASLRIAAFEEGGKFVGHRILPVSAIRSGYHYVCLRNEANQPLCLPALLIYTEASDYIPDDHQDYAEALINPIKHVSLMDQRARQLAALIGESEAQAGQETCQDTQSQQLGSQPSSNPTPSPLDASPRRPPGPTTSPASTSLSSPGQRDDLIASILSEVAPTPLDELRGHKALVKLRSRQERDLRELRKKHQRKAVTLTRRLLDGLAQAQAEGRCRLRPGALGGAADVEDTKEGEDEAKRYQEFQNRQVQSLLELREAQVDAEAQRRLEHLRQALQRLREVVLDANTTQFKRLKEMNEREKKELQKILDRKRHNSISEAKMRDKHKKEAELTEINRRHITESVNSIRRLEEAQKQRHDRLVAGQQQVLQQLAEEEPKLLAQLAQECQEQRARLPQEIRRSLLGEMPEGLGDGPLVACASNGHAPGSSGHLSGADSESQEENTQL
Chain of Delta-type opioid receptor (P41143 whole entry): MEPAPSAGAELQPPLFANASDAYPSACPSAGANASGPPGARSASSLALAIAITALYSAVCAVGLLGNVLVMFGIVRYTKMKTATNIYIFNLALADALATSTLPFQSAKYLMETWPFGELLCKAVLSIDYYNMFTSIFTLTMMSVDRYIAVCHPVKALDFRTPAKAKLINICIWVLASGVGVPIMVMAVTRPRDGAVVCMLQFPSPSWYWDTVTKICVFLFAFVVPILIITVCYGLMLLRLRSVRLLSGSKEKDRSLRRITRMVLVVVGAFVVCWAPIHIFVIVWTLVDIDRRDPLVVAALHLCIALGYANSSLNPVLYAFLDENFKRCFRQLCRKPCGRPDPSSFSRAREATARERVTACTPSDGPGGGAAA

Q: For `O=C(O)c1cccc(-c2ccc(/C=c3/sc4nc5ccccc5n4c3=O)o2)c1`, which IC50 [1] is on record?
A: The IC50 was > 122 µM (inactive).

Q: What about the IC50 [2] of the same compound?
A: Its IC50 is 1.74 µM (active).

Q: And the IC50 [3]?
A: The IC50 was > 66.6 µM (inactive).

Q: What about the IC50 [4] of the same compound?
A: The IC50 was 101 µM (active).

Q: What about the IC50 [5] of the same compound?
A: Its IC50 is > 122 µM (inactive).

Q: And the EC50 [6]?
A: The EC50 was 9.48 µM (active).

Q: And the IC50 [7]?
A: The IC50 was 4.98 µM (active).

Q: What about the IC50 [8] of the same compound?
A: Its IC50 is 2.27 µM (active).

Q: What about the IC50 [9] of the same compound?
A: Its IC50 is 118 µM (not active).

Q: And the IC50 [10]?
A: Its IC50 is 8.7 µM (active).

Q: Which AC50 [11] does the source give for `C(=C\c1ccc([C@@H]2[C@@H]3CN(Cc4ccc5c(c4)OCO5)C[C@H]2N3)cc1)/c1ccccc1` here?
A: Its AC50 is 17.1 µM (active).

Q: What about the AC50 [12] of the same compound?
A: Its AC50 is 6.09 µM (active).

Q: And the AC50 [13]?
A: The AC50 was > 12 µM (inactive).

Q: And the AC50 [14]?
A: Its AC50 is 9.8 µM (active).

Q: What about the AC50 [15] of the same compound?
A: Its AC50 is 17 µM (active).

Q: What does the source list for `O=c1c(CO)cc(CO)cc(CO)c1O`?
A: AC50 (Caspase-7): > 70 µM (inactive); AC50 (Caspase-6): 2.22 µM (active); IC50 (Albumin): > 94 µM (inactive)

Q: For `COC(=O)c1cc(Br)cnc1N1CCC(NC2CCOCC2)CC1`, which IC50 [16] is on record?
A: The IC50 was > 50 µM (inactive).

Q: What about the IC50 (Mu-type opioid receptor) of the same compound?
A: Its IC50 is 50 µM (inactive).
